Data: the supplement of paper PMC11061612

Assays:
Experiment in all cases: combination Emax (second highest fraction inhibited in the dose matrix, 72 h); higher = more inhibition; extreme values may be limits of the assay
[1] = test system: MN-60 (B-Lymphoblastic Leukemia)
How it was run: (§1)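 Cell lines grown in DMEM/F12 or RPMI with 10% FBS were plated in 1536-well plates and held 24 hours at 37°C, 5% CO2 before 72 hours of exposure to two-drug dose matrices, with DMSO typically at 0.2%. CellTiter-Glo 2.0 luminescence gave viability, which was converted to inhibition. Vehicle wells were set to 0 and blank wells to 1. Combination Emax is the second-highest inhibition in the matrix, and Bliss excess is the observed combination effect minus the expected EA + EB − EA·EB, where EA and EB are the single-agent effects.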

[2] = test system: NCI-H520 (Squamous Cell Lung Carcinoma)
How it was run: as §1

[3] = test system: KYSE-270 (Esophageal Squamous Cell Carcinoma)
How it was run: as §1

[4] = test system: MOG-G-CCM (Low Grade Glioma)
How it was run: as §1

[5] = test system: SK-GT-4 (Esophageal Adenocarcinoma)
How it was run: as §1

M059J (Glioblastoma) = test system: M059J (Glioblastoma)
How it was run: as §1

[6] = test system: T-T (Esophageal Squamous Cell Carcinoma)
How it was run: as §1

[7] = test system: KU812 (Chronic Myelogenous Leukemia)
How it was run: as §1

[8] = test system: KP-3 (Pancreatic Carcinoma)
How it was run: as §1

[9] = test system: DMS-114 (Small Cell Lung Carcinoma)
How it was run: as §1

[10] = test system: OCI-AML3 (Acute Myeloid Leukemia)
How it was run: as §1

[11] = test system: NCI-H3122 (Lung Adenocarcinoma)
How it was run: as §1

[12] = test system: VMRC-RCZ (Kidney Carcinoma)
How it was run: as §1

[13] = test system: NCCIT (Other Solid Carcinomas)
How it was run: as §1

[14] = test system: CW-2 (Colorectal Carcinoma)
How it was run: as §1

[15] = test system: NCI-H526 (Small Cell Lung Carcinoma)
How it was run: as §1

[16] = test system: ST486 (Burkitt's Lymphoma)
How it was run: as §1

[17] = test system: NCI-H929 (Plasma Cell Myeloma)
How it was run: as §1

SJSA-1 (Osteosarcoma) = test system: SJSA-1 (Osteosarcoma)
How it was run: as §1

[18] = test system: COR-L279 (Small Cell Lung Carcinoma)
How it was run: as §1

Row | Structure (SMILES) | combination Emax [1] | combination Emax [2] | combination Emax [3] | combination Emax [4] | combination Emax [5] | combination Emax (M059J (Glioblastoma)) | combination Emax [6] | combination Emax [7] | combination Emax [8] | combination Emax [9] | combination Emax [10] | combination Emax [11] | combination Emax [12] | combination Emax [13] | combination Emax [14] | combination Emax [15] | combination Emax [16] | combination Emax [17] | combination Emax (SJSA-1 (Osteosarcoma)) | combination Emax [18]
1 | O=C(c1cc(Cc2n[nH]c(=O)c3ccccc23)ccc1F)N1CCN(C(=O)C2CC2)CC1 [Olaparib] + COc1nnc2ccc(N3CCC(c4ccc(OCCN5CCN(C)C(=O)[C@H]5C)cc4)CC3)nn12 [AZD5153] (first compound max 10 µM, 7x7, partner max 1 µM) | 0.733 | 0.591 | 0.493 | 0.51 | 0.426 | 0.718 | 0.48 | 0.908 | 0.125 | 0.514 | 1 | 0.596 | 0.248 | 0.66 | 0.48 | 0.926 | 0.897 | 0.911 | 0.539 | 0.953
2 | O=C(c1cc(Cc2n[nH]c(=O)c3ccccc23)ccc1F)N1CCN(C(=O)C2CC2)CC1 [Olaparib] + Cc1c2c(nn1C)CSCc1cc(n(C)n1)CSc1cc(c3ccccc3c1)OCCCc1c(C(=O)O)n(C)c3c-2c(Cl)ccc13 [AZD5991] (first compound max 10 µM, 7x7, partner max 1 µM) | 0.22 | 0.104 | 0.625 | 0.222 | 0.0608 | 0.254 | 0.801 | 0.784 | 0.028 | 0.55 | 0.98 | 0.315 | 0.0573 | 0.527 | 0.101 | 0.805 | 0.558 | 1 | 0.0831 | 0.961
3 | N#Cc1cnc(Nc2cc(NC[C@H]3CNCCO3)c(C(F)(F)F)cn2)cn1 [SRA737] + C=CCn1c(=O)c2cnc(Nc3ccc(N4CCN(C)CC4)cc3)nc2n1-c1cccc(C(C)(C)O)n1 [AZD1775] (first compound max 10 µM, partner max 1 µM) | 0.642 | 0.755 | 0.991 | 0.683 | 0.565 | 0.659 | 0.671 | 0.796 | 0.294 | 0.229 | 0.934 | 0.724 | 0.51 | 0.821 | 0.499 | 0.753 | 0.987 | 0.724 | 0.535 | 0.834
4 | N#Cc1cnc(Nc2cc(NC[C@H]3CNCCO3)c(C(F)(F)F)cn2)cn1 [SRA737] + O=c1[nH]cc(F)c(=O)[nH]1 [5-Fluorouracil] (first compound max 10 µM, 7x7, partner max 20 µM) | 0.436 | 0.588 | 0.99 | 0.419 | 0.407 | 0.315 | 0.384 | 0.606 | 0.307 | 0 | 0.922 | 0.611 | 0.354 | 0.458 | 0.403 | 0.855 | 0.928 | 0.768 | 0.403 | 0.821
